Experimental data as given in paper PMC10035370, “Targeting Tumor Angiogenesis with the Selective VEGFR-3 Inhibitor EVT801 in Combination with Cancer Immunotherapy” (Cancer Research Communications, 2022).
pIC50: −log10 of the molar value.

Key:
VEGFR-3 [1] = target: T1, VEGFR-3 (Homo sapiens, UniProt P35916); assay: Biochemical kinase assay (in vitro assay), VEGFR-3; parameters: expressed in transfected cells; host or cells: HEK293T; settings: read-out: IC50 in biochemical assays, VEGFR-3
Protocol: Sigma protein kinase assay kits were used. 125 μL per well of Poly-Glu-Tyr (PGT) solution (250 μg/mL of PGT in PBS without Ca^2+, Mg^2+ and sodium bicarbonate) was added in a 96-well plate and overnight incubation was performed at 37 °C. The day after, coating solution was removed and wells were washed with 300 μL of PBS-Tween-20 0.05 %. The washing buffer was removed and wells were dried for 2 h at 37 °C. 90 μL of the kinase buffer was supplemented with ATP (30 μM for VEGFR-1 and VEGFR-3, and 15 μM for VEGFR-2), and the compound (EVT801 or SAR401849 at the indicated concentration or 1 % DMSO for the vehicle control). The phosphorylation reaction was initiated by the addition of 20 μL of kinase buffer without ATP supplemented with 100 ng of the tyrosine kinase (or without tyrosine kinase as control). Plates were incubated with gentle agitation at room temperature for 30 min. After 3 washes with 300 μL of washing buffer, 100 μL of phosphotyrosine specific monoclonal antibody conjugated to HRP (1:30,000) was added onto the phosphorylated PGT. Plates were incubated for 30 min at room temperature under gentle agitation. Then, 3 washes with 300 μL of washing buffer were performed. […] After 7 min at room temperature, the reaction was stopped by addition of 100 μL of […], and absorbance was determined with an Endvision spectrophotometer at 492 nm.
Target sequence in this assay (P35916 25-1363): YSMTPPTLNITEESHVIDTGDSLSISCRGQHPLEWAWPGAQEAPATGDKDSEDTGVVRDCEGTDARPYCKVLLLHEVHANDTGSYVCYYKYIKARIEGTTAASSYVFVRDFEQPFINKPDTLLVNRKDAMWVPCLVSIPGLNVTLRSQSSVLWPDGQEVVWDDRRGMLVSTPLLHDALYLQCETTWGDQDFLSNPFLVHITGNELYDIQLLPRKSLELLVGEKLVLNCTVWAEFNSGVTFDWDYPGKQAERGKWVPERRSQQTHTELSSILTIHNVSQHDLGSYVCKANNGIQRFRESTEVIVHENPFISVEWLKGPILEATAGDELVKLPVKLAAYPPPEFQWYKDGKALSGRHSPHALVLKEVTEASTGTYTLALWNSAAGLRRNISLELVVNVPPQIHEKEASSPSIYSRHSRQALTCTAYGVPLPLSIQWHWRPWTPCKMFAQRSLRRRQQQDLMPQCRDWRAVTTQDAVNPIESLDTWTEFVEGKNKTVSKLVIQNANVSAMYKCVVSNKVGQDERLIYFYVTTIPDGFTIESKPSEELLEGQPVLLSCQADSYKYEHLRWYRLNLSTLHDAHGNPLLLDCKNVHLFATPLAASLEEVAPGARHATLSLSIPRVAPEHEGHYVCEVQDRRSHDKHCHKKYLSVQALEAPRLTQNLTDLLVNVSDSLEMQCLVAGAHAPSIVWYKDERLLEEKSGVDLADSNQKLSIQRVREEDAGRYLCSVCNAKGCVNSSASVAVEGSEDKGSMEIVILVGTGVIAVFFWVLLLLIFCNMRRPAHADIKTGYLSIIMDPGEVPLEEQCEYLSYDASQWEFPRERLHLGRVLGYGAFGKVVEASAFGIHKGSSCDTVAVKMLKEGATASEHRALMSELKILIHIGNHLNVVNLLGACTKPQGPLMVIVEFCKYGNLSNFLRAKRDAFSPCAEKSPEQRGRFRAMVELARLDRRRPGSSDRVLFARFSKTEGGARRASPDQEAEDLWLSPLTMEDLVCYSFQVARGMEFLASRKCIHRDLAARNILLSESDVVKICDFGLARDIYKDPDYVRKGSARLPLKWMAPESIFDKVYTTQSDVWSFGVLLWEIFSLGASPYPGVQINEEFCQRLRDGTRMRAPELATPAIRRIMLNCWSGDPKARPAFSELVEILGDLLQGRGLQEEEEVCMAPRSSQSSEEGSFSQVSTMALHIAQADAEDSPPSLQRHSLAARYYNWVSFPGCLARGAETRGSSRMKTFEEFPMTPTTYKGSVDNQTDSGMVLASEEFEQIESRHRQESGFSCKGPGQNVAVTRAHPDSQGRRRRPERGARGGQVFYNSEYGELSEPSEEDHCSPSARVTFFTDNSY

VEGFR-3 [2] = target: T1, VEGFR-3; assay: Viability of Ba/F3 cells dependent on VEGFR-3; format: cell-based; parameters: fusion proteins consisting of constructs for IL-3 independent survival and either VEGFR-2 or VEGFR-3 kinase domains; expressed in transfected cells; host or cells: Ba/F3 (stably transduced)
Protocol: Ba/F3 cells were transduced and selected to stably express fusion proteins consisting of constructs for IL-3 independent survival and either VEGFR-2 or VEGFR-3 kinase domains or without the kinase domain. Proliferation and survival of cell lines was dependent on expression of the transcript. Cells in logarithmic-phase growth were harvested and 5 x 10^3 cells were distributed into each well of a 384-well plate in 50 µL of medium. Then, 50 nL of EVT801, SAR401849 or their vehicle solvent were added to appropriate wells. After 48 h, viability was determined by addition of 10 µL CellTiterGlo reagent (Promega). Luminescence was determined as relative light units (RLU) in counts per second.
Target sequence in this assay (P35916 845-1173 limits assumed, species assumed): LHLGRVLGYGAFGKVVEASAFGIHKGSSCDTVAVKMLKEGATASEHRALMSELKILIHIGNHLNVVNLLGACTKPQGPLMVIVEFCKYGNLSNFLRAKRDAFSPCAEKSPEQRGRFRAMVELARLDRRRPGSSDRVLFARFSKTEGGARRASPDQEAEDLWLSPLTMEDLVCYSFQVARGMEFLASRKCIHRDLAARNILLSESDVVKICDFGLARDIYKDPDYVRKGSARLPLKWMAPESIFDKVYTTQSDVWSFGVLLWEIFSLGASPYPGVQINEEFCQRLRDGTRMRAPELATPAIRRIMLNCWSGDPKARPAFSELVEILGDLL

VEGFR-3 [3] = target: T1, VEGFR-3; assay: Cellular autophosphorylation assay, HEK293 cells transiently expressing VEGFR-3; format: cell-based; parameters: expressed in transfected cells; host or cells: HEK293T; settings: read-out: IC50 in cellular assays, VEGFR-3 autophosphorylation
Protocol: Transfection of HEK293T cells and Ba/F3 cells with VEGFR-1-Flag, VEGFR-2-Flag or VEGFR-3-Flag expression constructs was performed using Fugene-6 (Roche) as per manufacturer’s protocol. Briefly, Fugene-6 was pre-incubated with Opti-Mem (Gibco) before adding DNA. After 24 h, media was replaced with serum-free culture media containing 0.2 % BSA. On the next day, cells were incubated for 1 h in 1 mM orthovanadate, harvested, dissociated and distributed at 4 x 10^5 cells in 5 mL for HEK-VEGFR-1 and HEK-VEGFR-3, and 5 x 10^4 cells per 5 mL for HEK VEGFR-2 in the presence of EVT801 or SAR401849. After 30 min, the reaction was stopped by the addition of cold PBS supplemented with 1 mM orthovanadate. Cells were then lysed with 150 μl of RIPA buffer for 15 min at 4°C, then centrifuged for 10 min at 10,000 g. Supernatants (75 μl) were distributed in duplicate on 96 well plates that were precoated with the anti-flag, and left for 1 h at room temperature. After 3 washes, the anti-phosphotyrosine conjugated to the HRP was added and incubated for 1 h at room temperature. Wells were then washed 3 times with TBS buffer containing 0.5 % Tween-20 and 2 mM MgCl2. The reaction was stopped with 50 μL of 2 N H2SO4, and the signal was read with Envision at the wavelengths of 485 nm and 530 nm.
Target sequence in this assay (P35916 25-1363): as the sequence (P35916 25-1363) above

`CCn1c(N)c(-c2ncc[nH]2)c(=O)c2ccc(C#C[C@@](C)(O)COC)nc21` [EVT801] gave a pIC50 (VEGFR-3 [1]) of 7.96, a pIC50 (VEGFR-3 [2]) of 7.62 and a pIC50 (VEGFR-3 [3]) of 7.41.
